Values quoted from earlier work as cited in US11111202B2, “Production of salts of 4-hydroxybutyrate using biobased raw materials” (CJ Cheiljedang Corporation, priority 2012, dated 2021).

Experiments:
[1] = after oral administration
[2] = or even longer if large doses have been consumed

O=C(O)CCCO [GHB, γ-Hydroxybutyric acid]
time of peak plasma concentration [1]: 20 to 60 min | duration of the effects of GHB [2]: 1.5 to 3 h
